Reference: BigSolDB 2.1

OC(CN1CCN(CC(O)(Cn2cncn2)c2ccc(F)cc2F)CC1)(Cn1cncn1)c1ccc(F)cc1F (stereo not given)
solubility (mole fraction)
Details | 293.15 K | 298.15 K | 303.15 K | 308.15 K | 313.15 K
in ethanol | 0.000305 | 0.00036 | 0.000401 | 0.000463 | 0.000548
in n-hexane | 9.77e-07 | 1.17e-06 | 1.37e-06 | 1.62e-06 | 1.92e-06
in n-octanol | 6.23e-05 | 7.87e-05 | 0.000101 | 0.000126 | 0.00016
